Results from patent US12435066B2, “Substituted tricyclic compounds” (LUPIN LIMITED, priority 2019, dated 2025).

Experiments:
[1] = biological target: T1, hSOS1 mediated nucleotide exchange on hKRASG12C (Homo sapiens, UniProt Q07889); experiment: biochemical
T1 sequence (Q07889 564-1049): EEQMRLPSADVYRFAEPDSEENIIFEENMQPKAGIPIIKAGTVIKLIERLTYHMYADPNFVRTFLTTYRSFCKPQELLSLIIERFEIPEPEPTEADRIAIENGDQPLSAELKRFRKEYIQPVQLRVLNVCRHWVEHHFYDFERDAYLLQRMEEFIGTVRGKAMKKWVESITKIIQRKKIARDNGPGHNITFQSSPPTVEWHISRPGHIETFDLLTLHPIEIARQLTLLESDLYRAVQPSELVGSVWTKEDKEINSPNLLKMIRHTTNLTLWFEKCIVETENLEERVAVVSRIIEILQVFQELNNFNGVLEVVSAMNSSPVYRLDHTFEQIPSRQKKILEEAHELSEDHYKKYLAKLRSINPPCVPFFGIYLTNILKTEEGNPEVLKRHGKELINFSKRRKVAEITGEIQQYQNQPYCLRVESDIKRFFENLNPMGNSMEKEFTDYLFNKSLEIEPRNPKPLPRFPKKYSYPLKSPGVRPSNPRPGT

hSOS1 and hKRASG12C = biological target: T2, hSOS1 and hKRASG12C (Homo sapiens, UniProt Q07889); experiment: biochemical
T2 sequence (Q07889 564-1049): T1 sequence (Q07889 564-1049)
Description: Interaction assay was conducted to evaluate the ability of the compounds to disrupt the protein-protein interactions between hSOS1 and hKRASG12C. Inhibitory effect of compounds on GST-hSOS1, 564-1049aa expressed and purified in-house and HIS-hKRASG12C (R06-32DH, SignalChem) interaction was assessed using HTRF detection technology in biochemical assay. Compounds were pre-incubated with 10-50 nM working solution of hSOS1 per well of a 384 well plate (Perkin Elmer, Cat #6007290) for 10 min at 20° C. in the assay buffer containing 5 mM HEPES, pH 7.4, 150 mM NaCl, 10 mM EDTA, 1 mM DTT, 0.05% BSA fraction V and 0.0025% Igepal. Reaction was initiated by adding 100-300 nM working solution of hKRASG12C in assay buffer. Total assay volume was 15 μL. Reaction was continued for 30-60 min at 20° C. Then detection solution containing MAb Anti-GST-d2 (#61GSTDLA, Cisbio BioAssays) and MAb Anti-HIS-Tb (#61HISTLA, Cisbio BioAssays), all prepared in HTRF detection buffer (#61DB10RDF, Cisbio BioAssays) was added and further incubated for 30-60 min at 20° C. HTRF signal was recorded in PHERAStar microplate reader. Ratio of signal obtained at 665 nm and 620 nm was used to compute the percent inhibition of compound utilizing the following formula:
Positive control=hSOS1+hKRASG12C+MAb Anti-GST-d2+Mab Anti-HIS-Tb Negative control=hKRASG12C+MAb Anti-GST-d2+MAb Anti-HIS-Tb

pERK in DLD1 cells = experiment: ERK phosphorylation assay after EGF stimulation; assay type: cell-based; conditions: Homo sapiens, DLD-1, compound 2 h, 200 ng/ml hEGF 5 minutes, alphascreen pERK, read-out: ERK phosphorylation inhibition IC50
Description: Example-128: ERK Phosphorylation Assay Protocol
Compounds were tested for their ability to inhibit pERK after EGF stimulation in DLD1 cells. Cells were seeded at 0.2 million cells per well in 96 well cell binding tissue culture plate in 100 μL complete media and were allowed to settle overnight (16 to 20 h). On the following day, cells were treated with various concentrations of test compounds for 2 h followed by stimulation with 200 ng/ml hEGF (diluted in PBS) for 5 minutes. Cells were then washed once with PBS and lysed in freshly prepared lysis buffer (provided with alphascreen surefire ERK1/2 p-T202/Y204 assay kit, cat no: TGRESB10K, Perkin Elmer). Lysis was carried out in plate shaker for 10-15 mins. Lysate was transferred to […] white opti-plate (Perkin Elmer) and alphascreen for pERK was carried out as per manufacturer's instructions. Plate was read after 2 h incubation in plate shaker at […] 300 RPM, 25-28° C.

Row | SMILES | IC50 [1] | IC50 (hSOS1 and hKRASG12C) | IC50 (pERK in DLD1 cells)
1 | Cc1nc(N[C@H](C)c2cccc(C(F)(F)[C@@H](C)O)c2F)c2cc(N3CC4(COC4)C3)c3c(c2n1)CCC3 (single isomer, unassigned) [Compound 73b] | 0.001 to 0.03 µM | 0.001 to 0.01 µM | 0.001 to 0.2 µM
2 | Cc1nc(N[C@H](C)c2cccc(C(F)(F)C(C)(C)O)c2F)c2cc(N3C[C@@H]4[C@@H](CO)[C@@H]4C3)c3c(c2n1)CCC3 [Compound 58, 1,1-difluoro-1-(2-fluoro-3-((R)-1-((6-((1R,5S,6R)-6-(hydroxymethyl)-3-azabicyclo[3.1.0]hexan-3-yl)-2-methyl-8,9-dihydro-7H-cyclopenta[h]quinazolin-4-yl)amino)ethyl)phenyl)-2-methylpropan-2-ol] | 0.001 to 0.03 µM | 0.001 to 0.01 µM | 0.001 to 0.2 µM
3 | COCC1(O)CCN(c2cc3c(N[C@H](C)c4cccc(C(F)(F)CO)c4F)nc(C)nc3c3c2CCC3)CC1 [Compound 68, (R)-1-(4-((1-(3-(1,1-difluoro-2-hydroxyethyl)-2-fluorophenyl)ethyl)amino)-2-methyl-8,9-dihydro-7H-cyclopenta[h]quinazolin-6-yl)-4-(methoxymethyl)piperidin-4-ol] | 0.001 to 0.03 µM | 0.001 to 0.01 µM | 0.001 to 0.2 µM
4 | COCC1CCN(c2cc3c(N[C@H](C)c4cc(N)cc(C(F)(F)F)c4)nc(C)nc3c3c2CCC3)CC1 [Compound 54, (R)—N-(1-(3-amino-5-(trifluoromethyl)phenyl)ethyl)-6-(4-(methoxymethyl)piperidin-1-yl)-2-methyl-8,9-dihydro-7H-cyclopenta[h]quinazolin-4-amine] | 0.031 to 0.07 µM | 0.011 to 0.02 µM | 0.001 to 0.2 µM
5 | Cc1nc(N[C@H](C)c2cc(N)cc(C(F)(F)F)c2)c2cc(N3CCOCC3)c3c(c2n1)CC(C)O3 (mixture of isomers) [Compound 117a, (R/S)—N—((R)-1-(3-amino-5-(trifluoromethyl)phenyl)ethyl)-2,8-dimethyl-6-morpholino-8,9-dihydrofuro[2,3-h]quinazolin-4-amine] | 0.031 to 0.07 µM | 0.001 to 0.01 µM | 0.001 to 0.2 µM
6 | Cc1nc(N[C@H](C)c2cc(N)cc(C(F)(F)F)c2)c2cc(N3CCC(O)(CO)CC3)c3c(c2n1)CCC3 [Compound 84, (R)-1-(4-((1-(3-amino-5-(trifluoromethyl)phenyl)ethyl)amino)-2-methyl-8,9-dihydro-7H-cyclopenta[h]quinazolin-6-yl)-4-(hydroxymethyl)piperidin-4-ol] | 0.001 to 0.03 µM | 0.001 to 0.01 µM | 0.001 to 0.2 µM
7 | COCC1(O)CCN(c2cc3c(N[C@H](C)c4cc(N)cc(C(F)(F)F)c4)nc(C)nc3c3c2CCC3)CC1 [Compound 47, (R)-1-(4-((1-(3-amino-5-(trifluoromethyl)phenyl)ethyl)amino)-2-methyl-8,9-dihydro-7H-cyclopenta[h]quinazolin-6-yl)-4-(methoxymethyl)piperidin-4-ol] | 0.001 to 0.03 µM | 0.001 to 0.01 µM | 0.001 to 0.2 µM
8 | Cc1nc(N[C@H](C)c2cc(N)cc(C(F)(F)F)c2)c2cc(N3CCC(O)CC3)c3c(c2n1)CCC3 [Compound 48, (R)-1-(4-((1-(3-amino-5-(trifluoromethyl)phenyl)ethyl)amino)-2-methyl-8,9-dihydro-7H-cyclopenta[h]quinazolin-6-yl)piperidin-4-ol] | 0.001 to 0.03 µM | 0.001 to 0.01 µM | 0.001 to 0.2 µM
9 | COCC1(O)CCN(c2cc3c(N[C@H](C)c4cccc(C(F)(F)COC)c4F)nc(C)nc3c3c2CCC3)CC1 [Compound 69, (R)-1-(4-((1-(3-(1,1-difluoro-2-methoxyethyl)-2-fluorophenyl)ethyl)amino)-2-methyl-8,9-dihydro-7H-cyclopenta[h]quinazolin-6-yl)-4-(methoxymethyl) piperidin-4-ol] | 0.001 to 0.03 µM | 0.001 to 0.01 µM | 0.001 to 0.2 µM
10 | Cc1nc(N[C@H](C)c2cccc(C(F)(F)[C@@](C)(O)CO)c2F)c2cc(N3CCOCC3)c3c(c2n1)CCC3 (racemic) [Compound 82b, (S/R)-3,3-difluoro-3-(2-fluoro-3-((S/R)-1-((2-methyl-6-morpholino-8,9-dihydro-7H-cyclopenta[h]quinazolin-4-yl)amino)ethyl)phenyl)-2-methylpropane-1,2-diol] | 0.001 to 0.03 µM | 0.001 to 0.01 µM | 0.001 to 0.2 µM
11 | Cc1nc(N[C@H](C)c2cc(N)cc(C(F)(F)F)c2)c2cc(N3CCOCC3)c3c(c2n1)CCC3 [Compound 2, (R)—N-(1-(3-amino-5-(trifluoromethyl)phenyl)ethyl)-2-methyl-6-morpholino-8,9-dihydro-7H-cyclopenta[h]quinazolin-4-amine] | 0.001 to 0.03 µM | 0.001 to 0.01 µM | 0.001 to 0.2 µM
12 | Cc1nc(N[C@H](C)c2cccc(C(F)(F)C(C)(C)O)c2F)c2cc(N3CCOCC3)c3c(c2n1)CCC3 [Compound 59, (R)-1,1-difluoro-1-(2-fluoro-3-(1-((2-methyl-6-morpholino-8,9-dihydro-7H-cyclopenta[h]quinazolin-4-yl)amino)ethyl)phenyl)-2-methylpropan-2-ol] | 0.001 to 0.03 µM | 0.001 to 0.01 µM | 0.001 to 0.2 µM
13 | Cc1nc(N[C@H](C)c2cc(N)cc(C(F)F)c2)c2cc(N3CCOCC3)c3c(c2n1)CC(C)(C)O3 [Compound 115, (R)—N-(1-(3-amino-5-(difluoromethyl)phenyl)ethyl)-2,8,8-trimethyl-6-morpholino-8,9-dihydrofuro[2,3-h]quinazolin-4-amine] | 0.031 to 0.07 µM | 0.001 to 0.01 µM | 0.001 to 0.2 µM
14 | Cc1nc(N[C@H](C)c2cc(N)cc(C(F)(F)F)c2)c2cc(N3CCC(CO)CC3)c3c(c2n1)CCC3 [Compound 49, (R)-(1-(4-((1-(3-amino-5-(trifluoromethyl)phenyl)ethyl)amino)-2-methyl-8,9-dihydro-7H-cyclopenta[h]quinazolin-6-yl)piperidin-4-yl)methanol] | 0.001 to 0.03 µM | 0.001 to 0.01 µM | 0.001 to 0.2 µM
15 | Cc1nc(N[C@H](C)c2cccc(C(F)(F)CO)c2F)c2cc(N3CC4(COC4)C3)c3c(c2n1)CCC3 [Compound 23, (R)-2,2-difluoro-2-(2-fluoro-3-(1-((2-methyl-6-(2-oxa-6-azaspiro[3.3]heptan-6-yl)-8,9-dihydro-7H-cyclopenta[h]quinazolin-4-yl)amino)ethyl)phenyl)ethan-1-ol] | 0.001 to 0.03 µM | 0.001 to 0.01 µM | 0.001 to 0.2 µM
16 | Cc1nc(N[C@H](C)c2cccc(C(F)(F)C(C)O)c2F)c2cc(N3CC4(COC4)C3)c3c(c2n1)CCC3 (single isomer, unassigned) [Compound 73a] | 0.001 to 0.03 µM | 0.001 to 0.01 µM | 0.001 to 0.2 µM
17 | Cc1nc(N[C@H](C)c2cccc(C(F)(F)C(C)(C)O)c2F)c2cc(N3CCC(CO)CC3)c3c(c2n1)CCC3 [Compound 64, (R)-1,1-difluoro-1-(2-fluoro-3-(1-((6-(4-(hydroxymethyl)piperidin-1-yl)-2-methyl-8,9-dihydro-7H-cyclopenta[h]quinazolin-4-yl)amino)ethyl)phenyl)-2-methylpropan-2-ol] | 0.001 to 0.03 µM | 0.001 to 0.01 µM | 0.001 to 0.2 µM
18 | COc1cc2c(N[C@H](C)c3cccc(C(F)(F)CO)c3F)nc(C)nc2c2c1N(C)CCO2 [Compound 121, (R)-2,2-difluoro-2-(2-fluoro-3-(1-((6-methoxy-2,7-dimethyl-8,9-dihydro-7H-[1,4]oxazino[3,2-h]quinazolin-4-yl)amino)ethyl)phenyl)ethan-1-ol] | 0.001 to 0.03 µM | 0.001 to 0.01 µM | 0.001 to 0.2 µM
